Laboratory results reported in article PMC8422859, “A Novel Oral Arginase 1/2 Inhibitor Enhances the Antitumor Effect of PD-1 Inhibition in Murine Experimental Gliomas by Altering the Immunosuppressive Environment” (Frontiers in Oncology, 2021).
“Also recorded” adds a separate entry of the source.

Tests used:
LN18 glioma cells = test: Matrigel invasion assay, LN18 co-cultured with BV2 microglia; format: cell-based, human; settings: 11 µM, co-culture with BV2, 18 h
Description: BV2 cells were plated onto a 24-well plate at the density of 4×10^4. After 24 h, the invasion assay was performed with tissue culture inserts (6.5 mm Transwell® with 8.0 µm Pore Polycarbonate Membrane Insert, Corning, NY, USA) coated with the Growth Factor Reduced Matrigel™ Matrix (BD Biosciences, San Diego. CA, USA). The Matrigel™ Matrix (50 µL of 1 mg/mL stock solution diluted in fresh DMEM) was dried under sterile conditions (37°C) for 5–6 h. The medium in BV2 cultures was replaced with fresh one 1 h before seeding glioblastoma cells onto the inserts, then LN18 and U87 glioblastoma cells were seeded at 2×10^4/insert on Matrigel-covered membranes in a serum-reduced medium (2% FBS). Untreated glioblastoma cells co-cultured with or without BV2 cells served as positive and negative controls, respectively. Cells were treated with the arginase-1 inhibitors OAT-90, OAT-1617 and OAT-1746 solved in PBS. The cultures were kept in incubator at 37°C with humidified air containing 5% CO2. […] The membranes from Transwell® inserts were cut out and images were acquired using a fluorescence microscope (Leica DM4000B, 10x lens) from the 5 independent fields (bottom; top; left; right side and the middle). Numbers of invading cells were counted using the ImageJ software (NIH, Bethesda, MD, USA). […]

[1] = system: tumor-infiltrating immune cells in GL261 gliomas; test: Immune cells in GL261 gliomas (immunohistochemistry, flow cytometry); format: in vivo, mouse
Description: The animals were sacrificed on the day 21 after GL261 tdTomato^+luc^+ cell implantation and perfused with 4% paraformaldehyde in PBS. Brains were removed, post-fixed for 48 h in the same fixative solution and placed in 30% sucrose in PBS at 4°C until the tissue sunk to the bottom of the flask. Tissue was frozen in Tissue Freezing Medium (Jung; Nussloch, Germany) and cut in 12 µm coronal sections using a cryostat. The slides were dried at room temperature for 2 h after being transferred from the -80°C storage. Cryosections were blocked in PBS containing 10% donkey serum and 0.1% Triton X-100 for 2 h and incubated overnight at 4°C with rabbit anti-Iba-1 and goat anti-Arg1 or with rabbit anti-CD8 antibodies. Next, sections were washed in PBS and incubated with corresponding secondary antibodies for 2 h at room temperature. All antibodies were diluted in 0.1% Triton X-100/PBS solution containing 3% donkey serum. Nuclei were counterstained with DAPI (1 µg/mL). Images were obtained using the Olympus microscope (Fluoview, FV10i). For reagent specifications, catalogue numbers, and concentrations, see the Supplementary Table 1. To quantify the tumor size, sections were stained with toluidine blue, and images were acquired using a Leica DM4000B microscope (Leica Microsystems, Wetzlar, Germany). Tumor areas were measured using ImageJ software (NIH, Bethesda, MD, USA) on every sixth brain slice, and tumor volumes were calculated as previously described ([26]).
On day 28 after GL261 tdTomato^+luc^+ cell implantation mice were perfused transcardially with cold phosphate-buffered saline (PBS) to clear away blood cells from the brain. […] Next, cells were collected, washed with PBS and counted using NucleoCounter (Chemometec, Denmark). […]
All antibodies were titrated prior to staining to establish the amount yielding the best stain index. Data were acquired using a BD LSR Fortessa Analyzer cytometer and analyzed with FlowJo software (v. 10.5.3, FlowJo LLC, BD). Gates were set based on FMO (fluorescence minus one) controls and back-gating analysis. […]

SMILES: CN(C)C[C@@H]1CC[C@@H](CCB(O)O)C[C@]1(N)C(=O)O [OAT-1746]
- microglia-induced invasion of LN18 cells (LN18 glioma cells): effectively reduced glioma invasion; also recorded: reduced microglia-induced invasion of glioma cells more efficiently
- percentage of microglia (CD11b+CD45low) and blood-derived macrophages (CD11b+CD45high) ([1]; flow cytometry, day 28): did not change
- accumulation of CD8+ cells ([1]; immunohistochemistry, day 21): did not affect
- accumulation of Iba1+ and Arg1+ cells in gliomas ([1]; immunohistochemistry, day 21): did not change
